“And” between values parts separate entries of the source, which are not always exact repeats. Equal entries are not always repeated. Toxic doses and inconclusive results are not listed. How the source made its calls: active means survival T/C of 150% or more; inactive means T/C below 125% in these data.
Tested on: CD2F1 mice, L1210 leukemia ip, survival T/C
Assay: NCI In Vivo Anticancer Drug Screen. Data for tumor model L1210 Leukemia (intraperitoneal) in CD2F1 (CDF1) mice
Details: endpoint: mean survival time, higher = longer survival
Outline: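 Vehicle-treated tumor-bearing mice served as controls (C) for compound-treated mice (T). Reported figure is T divided by C.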

[1] = dose: 25.0 mg/kg/injection, schedule: Q01DX009 (ip), vehicle: saline with Tween-80
[2] = dose: 50.0 mg/kg/injection, schedule: Q01DX009 (ip), vehicle: saline with Tween-80
[3] = dose: 100.0 mg/kg/injection, schedule: Q01DX001 (ip), vehicle: saline with Tween-80
[4] = dose: 100.0 mg/kg/injection, schedule: Q01DX009 (ip), vehicle: saline with Tween-80
[5] = dose: 100.0 mg/kg/injection, schedule: Q04DX003 (ip), vehicle: saline with Tween-80
[6] = dose: 200.0 mg/kg/injection, schedule: Q01DX009 (ip), vehicle: saline with Tween-80
[7] = dose: 200.0 mg/kg/injection, schedule: Q04DX003 (ip), vehicle: saline with Tween-80
[8] = dose: 50.0 mg/kg/injection, schedule: Q01DX009 (ip), vehicle: Klucel (hydroxypropylcellulose) (HPC)
[9] = dose: 100.0 mg/kg/injection, schedule: Q01DX009 (ip), vehicle: Klucel (hydroxypropylcellulose) (HPC)
[10] = dose: 200.0 mg/kg/injection, schedule: Q01DX009 (ip), vehicle: Klucel (hydroxypropylcellulose) (HPC)
[11] = dose: 400.0 mg/kg/injection, schedule: Q01DX009 (ip), vehicle: Klucel (hydroxypropylcellulose) (HPC)
[12] = dose: 400.0 mg/kg/injection, schedule: Q04DX003 (ip), vehicle: saline with Tween-80
[13] = dose: 100.0 mg/kg/injection, schedule: Q01DX001 (ip), vehicle: saline
[14] = dose: 200.0 mg/kg/injection, schedule: Q01DX001 (ip), vehicle: saline
[15] = dose: 400.0 mg/kg/injection, schedule: Q01DX001 (ip), vehicle: saline
[16] = dose: 400.0 mg/kg/injection, schedule: Q01DX009 (ip), vehicle: saline with Tween-80

Measured: T/C

CCCCOP(=O)(OCCCC)C(CCC)OP(OC(CCC)P(=O)(OCCCC)OCCCC)OC(CCC)P(=O)(OCCCC)OCCCC (configuration not stated)
inactive: dose: 100.0 mg/kg/injection, schedule: Q04DX002 (ip), vehicle: saline 103 % of control | dose: 200.0 mg/kg/injection, schedule: Q04DX002 (ip), vehicle: saline 89 % of control | dose: 400.0 mg/kg/injection, schedule: Q04DX002 (ip), vehicle: saline 97 % of control

O=c1cc(NCCCCCc2ccccc2)[nH]c(=O)[nH]1
inactive: dose: 37.5 mg/kg/injection, schedule: Q01DX001 (ip), vehicle: saline with Tween-80 96 % of control | dose: 75.0 mg/kg/injection, schedule: Q01DX001 (ip), vehicle: saline with Tween-80 100 % of control | dose: 150.0 mg/kg/injection, schedule: Q01DX001 (ip), vehicle: saline with Tween-80 96 % of control

O=C(OCC1CCN2CCCC12)c1ccccc1 (configuration not stated)
inactive: dose: 12.5 mg/kg/injection, schedule: Q01DX009 (ip), vehicle: saline 88 % of control | dose: 25.0 mg/kg/injection, schedule: Q01DX009 (ip), vehicle: saline 91 % of control | dose: 50.0 mg/kg/injection, schedule: Q01DX009 (ip), vehicle: saline 91 % of control

Oc1ccc2ccccc2c1
inactive: dose: 10.0 mg/kg/injection, schedule: Q04DX003 (ip), vehicle: Klucel (hydroxypropylcellulose) (HPC) 101 % of control | dose: 20.0 mg/kg/injection, schedule: Q04DX003 (ip), vehicle: Klucel (hydroxypropylcellulose) (HPC) 96 % of control | dose: 40.0 mg/kg/injection, schedule: Q04DX003 (ip), vehicle: Klucel (hydroxypropylcellulose) (HPC) 96 % of control

CC(=O)Oc1ccc2ccccc2c1
inactive: [1] 100 % of control | [2] 107 % of control | [3] 107 % of control

O=C(CCl)Nc1cccc2c1CCCC2
inactive: [2] 97 % of control | [4] 94 % of control | [5] 98 % of control | [6] 91 % of control | [7] 96 % of control

C[C@]12CCC(=O)C(O)=C1CC[C@@H]1[C@@H]2CC[C@]2(C)C(=O)CC[C@@H]12
inactive: dose: 12.5 mg/kg/injection, schedule: Q01DX009 (ip), vehicle: Klucel (hydroxypropylcellulose) (HPC) 103 % of control | dose: 25.0 mg/kg/injection, schedule: Q01DX009 (ip), vehicle: Klucel (hydroxypropylcellulose) (HPC) 97 % of control | [8] 104 % of control | [9] 98 % of control | [10] 91 % of control | [11] 97 % of control

CNC(C(=O)O)c1ccccc1 (configuration not stated)
inactive: [1] 101 % of control | [2] 100 % of control | [4] 92 % of control and 94 % of control | [5] 92 % of control | [7] 101 % of control | [12] 89 % of control

CCOC(=S)SSC(=S)OCC
inactive: dose: 100.0 mg/kg/injection, schedule: Q01DX001 (ip), vehicle: Klucel (hydroxypropylcellulose) (HPC) 92 % of control | dose: 200.0 mg/kg/injection, schedule: Q01DX001 (ip), vehicle: Klucel (hydroxypropylcellulose) (HPC) 114 % of control

CC(C)(C)CC(C)(C)c1ccc(OCCOc2ccc(NS(=O)(=O)c3ccc(N)cc3)cc2)cc1
inactive: [9] 95 % of control | [5] 97 % of control | [10] 96 % of control | [7] 97 % of control | [11] 93 % of control | [12] 95 % of control

CC/C=C(\CC(=O)OCC)C(=O)OCC
inactive: [5] 102 % of control | [7] 106 % of control | [12] 101 % of control

Cc1ccc(Cl)cc1NC(=O)Nc1nccs1
inactive: [8] 91 % of control | [9] 91 % of control | [10] 102 % of control

Cc1cc(Cl)c(OCC(=O)O)c(Cl)c1
inactive: [5] 100 % of control | [7] 100 % of control

CN1CCCN(C)C1
inactive: dose: 75.0 mg/kg/injection, schedule: Q01DX001 (ip), vehicle: saline 97 % of control | dose: 150.0 mg/kg/injection, schedule: Q01DX001 (ip), vehicle: saline 97 % of control | dose: 300.0 mg/kg/injection, schedule: Q01DX001 (ip), vehicle: saline 102 % of control

CCCN(CCC)S(=O)(=O)c1ccc(NC(=O)OCc2ccccc2)cc1
inactive: [13] 103 % of control | [14] 103 % of control | [15] 93 % of control

CC(=O)N/N=C/C(C)(C)C(C)(C)/C=N/NC(C)=O
inactive: dose: 100.0 mg/kg/injection, schedule: Q04DX002 (ip), vehicle: saline with Tween-80 103 % of control | dose: 200.0 mg/kg/injection, schedule: Q04DX002 (ip), vehicle: saline with Tween-80 122 % of control

Cc1cccc(=O)n1Cc1ccccc1
inactive: [5] 95 % of control | [7] 95 % of control | [12] 95 % of control

COC(=O)C1(C)CCCC2(C)C3CC4OC4(C(C)C)CC3(O)CCC12 (configuration not stated)
inactive: [5] 96 % of control | [7] 96 % of control | [12] 98 % of control

CC1=C(N)C(=O)c2c(COC(N)=O)c3n(c2C1=O)C[C@H]1N[C@@H]31
inactive: dose: 3.0 mg/kg/injection, schedule: Q01DX001 (ip), vehicle: distilled water + Tween-80 105 % of control | dose: 6.0 mg/kg/injection, schedule: Q01DX001 (ip), vehicle: distilled water + Tween-80 100 % of control | dose: 12.0 mg/kg/injection, schedule: Q01DX001 (ip), vehicle: distilled water + Tween-80 100 % of control | dose: 24.0 mg/kg/injection, schedule: Q01DX001 (ip), vehicle: distilled water + Tween-80 100 % of control | dose: 48.0 mg/kg/injection, schedule: Q01DX001 (ip), vehicle: distilled water + Tween-80 94 % of control

CCCCNS(=O)(=O)c1ccccc1
inactive: [5] 97 % of control | [7] 96 % of control

CCC(CC)C(O)CC(O)CC(C)C (configuration not stated)
inactive: dose: 25.0 mg/kg/injection, schedule: Q01DX009 (ip), vehicle: other 97 % of control | dose: 50.0 mg/kg/injection, schedule: Q01DX009 (ip), vehicle: other 103 % of control | dose: 100.0 mg/kg/injection, schedule: Q01DX009 (ip), vehicle: other 97 % of control | dose: 100.0 mg/kg/injection, schedule: Q04DX003 (ip), vehicle: other 86 % of control | dose: 400.0 mg/kg/injection, schedule: Q04DX003 (ip), vehicle: other 94 % of control

CC(NC(=O)C(C)(Br)C1CCCCC1)c1ccccc1 (configuration not stated)
inactive: [3] 87 % of control | dose: 200.0 mg/kg/injection, schedule: Q01DX001 (ip), vehicle: saline with Tween-80 91 % of control

O=C(NC(=O)c1ccccc1)NS(=O)(=O)c1ccccc1
inactive: [4] 113 % of control | [6] 109 % of control | [16] 98 % of control

NC/C(=N\Nc1ccc([N+](=O)[O-])cc1[N+](=O)[O-])c1ccccc1
inactive: dose: 100.0 mg/kg/injection, schedule: Q04DX003 (ip), vehicle: saline 103 % of control | dose: 200.0 mg/kg/injection, schedule: Q04DX003 (ip), vehicle: saline 100 % of control | dose: 400.0 mg/kg/injection, schedule: Q04DX003 (ip), vehicle: saline 97 % of control

Cc1cc(C)c(CCc2c(C)cc(C)cc2C)c(C)c1
inactive: dose: 25.0 mg/kg/injection, schedule: Q04DX003 (ip), vehicle: saline with Tween-80 96 % of control | dose: 50.0 mg/kg/injection, schedule: Q04DX003 (ip), vehicle: saline with Tween-80 98 % of control | [4] 89 % of control | [5] 100 % of control | [6] 96 % of control | [16] 93 % of control

COc1ccc(N=C=S)cc1N=C=S
inactive: dose: 6.25 mg/kg/injection, schedule: Q01DX001 (ip), vehicle: saline with Tween-80 98 % of control | dose: 12.5 mg/kg/injection, schedule: Q01DX001 (ip), vehicle: saline with Tween-80 97 % of control | dose: 25.0 mg/kg/injection, schedule: Q01DX001 (ip), vehicle: saline with Tween-80 101 % of control

CC1(C)N=C(N)N=C(N)N1c1ccccc1Cl
inactive: dose: 25.0 mg/kg/injection, schedule: Q04DX002 (ip), vehicle: saline 103 % of control | dose: 50.0 mg/kg/injection, schedule: Q04DX002 (ip), vehicle: saline 100 % of control

N=c1c2ncn(C3CCCC3)c2ncn1OCc1ccccc1
inactive: dose: 100.0 mg/kg/injection, schedule: Q01DX001 (ip), vehicle: other 98 % of control

O=C(Nc1ccccc1)Oc1ccc2ccccc2c1
inactive: [13] 96 % of control | [14] 94 % of control | [15] 97 % of control

— PubChem BioAssay AID256 (DTP/NCI, 2004)
